{
  "source": "patent US11841367B2",
  "about": "“TLR agonist-enhanced in vitro assay of cell mediated immune responsiveness” (Cellestis Limited, priority 2011, dated 2023)",
  "format_in_all_cases": "cell-based, human",
  "key": {"[1]": {"system": "whole blood", "assay": "IFN-γ responses of whole blood in QFT-CMV tubes plus R848", "settings": "for IFNγ response to antigen+R848 minus background to R848 alone, Mean: 16-24 hours"}, "[2]": {"system": "whole blood", "assay": "Background IFN-γ responses to R848 alone in QFT-Nil tubes (whole blood, ELISA)", "settings": "for IFNγ concentration of the plasma, background response, Mean: QFT-Nil tube, 1 ml whole blood, 37° C., 16-24 hours"}, "[3]": {"system": "whole blood", "assay": "IFN-γ responses of whole blood in QFT-Nil tubes with EBV EBNA1 pepMix plus R848", "settings": "for IFNγ response to antigen+R848 minus background to R848 alone, Mean: 16-24 hours"}, "[4]": {"system": "whole blood", "assay": "Clinical study: QFT-TB response with added R848 in TB patients, TB suspects and household contacts", "settings": "for effect on QFT-TB response: subjects positive to QFT-TB test alone"}},
  "data": [
    {"smiles": "CCOCc1nc2c(N)nc3ccccc3c2n1CC(C)(C)O", "note": "[R848]", "values": [
      {"measurement": "boost in responses in QFT-CMV tubes", "setting": "[1]; 0.05 μg/ml R848 added", "value": "not as large as that seen for EBV"},
      {"measurement": "boost in responses in QFT-CMV tubes", "setting": "[1]; 0.1 μg/ml R848 added", "value": "much greater"},
      {"measurement": "IFNγ response to antigen+R848 minus background to R848 alone, Mean", "setting": "[1]; QFT-CMV tube + 0.05 μg/ml R848, whole blood", "value": 15.96, "unit": "IU/ml"},
      {"measurement": "IFNγ response to antigen+R848 minus background to R848 alone, Mean", "setting": "[1]; QFT-CMV tube + 0.1 μg/ml R848, whole blood", "value": 79.53, "unit": "IU/ml"},
      {"measurement": "background responses to R848 alone", "setting": "[2]; 0.1 μg/ml R848, QFT-Nil tubes", "value": "significant background responses seen in many donors"},
      {"measurement": "IFNγ concentration of the plasma, background response, Mean", "setting": "[2]; R848 0.01 μg/ml alone", "value": "−0.009677 1 U/ml"},
      {"measurement": "IFNγ concentration of the plasma, background response, Mean", "setting": "[2]; R848 0.02 μg/ml alone", "value": "0.0100 1 U/ml"},
      {"measurement": "IFNγ concentration of the plasma, background response, Mean", "setting": "[2]; R848 0.025 μg/ml alone", "value": "0.0330 1 U/ml"},
      {"measurement": "IFNγ concentration of the plasma, background response, Mean", "setting": "[2]; R848 0.03 μg/ml alone", "value": "0.0925 1 U/ml"},
      {"measurement": "IFNγ concentration of the plasma, background response, Mean", "setting": "[2]; R848 0.04 μg/ml alone", "value": "0.5144 1 U/ml"},
      {"measurement": "IFNγ concentration of the plasma, background response, Mean", "setting": "[2]; R848 0.05 μg/ml alone", "value": "1.084 1 U/ml"},
      {"measurement": "IFNγ concentration of the plasma, background response, Mean", "setting": "[2]; R848 0.1 μg/ml alone", "value": "21.58 1 U/ml"},
      {"measurement": "background responses to R848 alone", "setting": "[2]; below 0.05 μg/ml R848, QFT-Nil tubes", "value": "not significant"},
      {"measurement": "boost in EBV responses", "setting": "[3]; 0.05 μg/ml R848 added to EBV EBNA1 peptide pool", "value": "significant boost"},
      {"measurement": "IFNγ response to antigen+R848 minus background to R848 alone, Mean", "setting": "[3]; 0.5 μg/ml EBV EBNA 1 pepMix + 0.01 μg/ml R848, whole blood", "value": 2.857, "unit": "IU/ml"},
      {"measurement": "IFNγ response to antigen+R848 minus background to R848 alone, Mean", "setting": "[3]; 0.5 μg/ml EBV EBNA 1 pepMix + 0.05 μg/ml R848, whole blood", "value": 18.32, "unit": "IU/ml"},
      {"measurement": "IFNγ response to antigen+R848 minus background to R848 alone, Mean", "setting": "[3]; 0.5 μg/ml EBV EBNA 1 pepMix + 0.1 μg/ml R848, whole blood", "value": 29.57, "unit": "IU/ml"},
      {"measurement": "responses to the antigen-R848 combined stimuli versus sum of separate responses", "setting": "[3]; EBV and CMV antigens, whole blood", "value": "greater than that seen by adding together the responses to the antigen and R848 alone individually"},
      {"measurement": "effect on QFT-TB response", "setting": "[4]; R848 0.05 μg/ml, P<0.001", "value": "significantly enhanced"},
      {"measurement": "effect on QFT-TB response", "setting": "[4]; R848 0.1 μg/ml, P<0.0001", "value": "significantly enhanced"},
      {"measurement": "patients negative with the current QFT-TB tube who became positive when R848 was added", "setting": "[4]; both R848 concentrations tested, both patients TB suspects", "value": "Two"}
    ]}
  ]
}
